Source: ChEMBL document CHEMBL1201862, “PubChem BioAssay data set” (2004)
Activity calls are given as the source filed them.

Experiments:
[1] = target: T1, High affinity choline transporter 1 (Homo sapiens, UniProt Q9GZV3); test: human choline transporter blockers, potency – cell-based, 5-point CRC, membrane potential dye, dose response (AID 504840); assay type: functional
T1 sequence (Q9GZV3 whole entry): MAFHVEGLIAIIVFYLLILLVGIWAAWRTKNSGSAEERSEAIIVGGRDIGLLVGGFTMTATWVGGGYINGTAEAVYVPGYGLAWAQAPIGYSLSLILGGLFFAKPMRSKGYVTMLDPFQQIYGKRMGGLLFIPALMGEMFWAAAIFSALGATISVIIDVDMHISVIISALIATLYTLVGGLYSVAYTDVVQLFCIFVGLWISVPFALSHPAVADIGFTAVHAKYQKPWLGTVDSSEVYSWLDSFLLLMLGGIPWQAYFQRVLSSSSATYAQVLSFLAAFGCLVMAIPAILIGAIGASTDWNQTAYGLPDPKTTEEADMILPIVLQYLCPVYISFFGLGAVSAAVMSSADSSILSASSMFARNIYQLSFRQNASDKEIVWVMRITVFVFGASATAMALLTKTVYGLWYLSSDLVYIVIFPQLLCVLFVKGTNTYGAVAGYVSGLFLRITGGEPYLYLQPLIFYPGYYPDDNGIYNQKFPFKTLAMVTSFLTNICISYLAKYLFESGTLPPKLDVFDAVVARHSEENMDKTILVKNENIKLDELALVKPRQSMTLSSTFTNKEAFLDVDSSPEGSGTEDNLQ

[2] = target: T1, High affinity choline transporter 1; test: human choline transporter blockers, potency – cell-based, 10-point CRC, membrane potential dye, dose response (AID 588401); assay type: functional;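 note: membrane potential dye fluorescence of choline-evoked depolarization via CHT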
[3] = target: T2, Voltage-gated N-type calcium channel alpha-1B subunit/Amyloid beta A4 precursor protein-binding family A member 1 (Homo sapiens, UniProt Q00975+Q02410); assay type: protein assay
[4] = target: T2, Voltage-gated N-type calcium channel alpha-1B subunit/Amyloid beta A4 precursor protein-binding family A member 1; assay type: protein assay; remark: listed apart in the source
[5] = target: Neurotensin receptor type 1 (Homo sapiens, UniProt P30989); assay type: functional;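 note: Image-based confirmatory dose-response assay measuring agonist activity at NTR1; NTR1-expressing U2OS osteosarcoma cells imaged for beta-arrestin GFP spot formation; agonist potency where compounds increase beta-arrestin recruitment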
[6] = target: T3, Carboxy-terminal domain RNA polymerase II polypeptide A small phosphatase 1 (Homo sapiens, UniProt Q9GZU7); test: CTDSP1 inhibitors, concentration-response, biochemical, absorbance readout, ultra-high-throughput screen actives (AID 540297); assay type: functional
T3 sequence (Q9GZU7 whole entry): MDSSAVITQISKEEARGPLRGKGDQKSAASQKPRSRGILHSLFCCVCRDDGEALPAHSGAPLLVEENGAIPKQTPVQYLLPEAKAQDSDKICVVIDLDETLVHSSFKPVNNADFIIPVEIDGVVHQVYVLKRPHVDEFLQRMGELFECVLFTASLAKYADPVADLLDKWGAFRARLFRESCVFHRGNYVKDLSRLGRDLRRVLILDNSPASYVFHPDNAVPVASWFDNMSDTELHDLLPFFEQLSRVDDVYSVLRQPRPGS

Melanocortin receptor 4 = Melanocortin receptor 4 (Homo sapiens, UniProt P32245); test: inhibitors of MC4R cAMP signaling – cell-based, TR-FRET, biased antagonists, dose response (AID 602298); assay type: functional;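 note: antagonist potency against agonist-stimulated cAMP production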
[7] = cAMP pathway inhibition in counterscreen cell line – TR-FRET cAMP detection, counter-screen for MC4R biased antagonist project, dose response (AID 602305); assay type: functional, cell-based;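 note: U2OS cells stimulated with forskolin near its EC80 as the cAMP inducer; potency is for inhibition of forskolin-stimulated cAMP signaling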
[8] = target: T4, Histone-lysine N-methyltransferase NSD2 (Homo sapiens, UniProt O96028); assay type: biochemical
T4 sequence (O96028 whole entry): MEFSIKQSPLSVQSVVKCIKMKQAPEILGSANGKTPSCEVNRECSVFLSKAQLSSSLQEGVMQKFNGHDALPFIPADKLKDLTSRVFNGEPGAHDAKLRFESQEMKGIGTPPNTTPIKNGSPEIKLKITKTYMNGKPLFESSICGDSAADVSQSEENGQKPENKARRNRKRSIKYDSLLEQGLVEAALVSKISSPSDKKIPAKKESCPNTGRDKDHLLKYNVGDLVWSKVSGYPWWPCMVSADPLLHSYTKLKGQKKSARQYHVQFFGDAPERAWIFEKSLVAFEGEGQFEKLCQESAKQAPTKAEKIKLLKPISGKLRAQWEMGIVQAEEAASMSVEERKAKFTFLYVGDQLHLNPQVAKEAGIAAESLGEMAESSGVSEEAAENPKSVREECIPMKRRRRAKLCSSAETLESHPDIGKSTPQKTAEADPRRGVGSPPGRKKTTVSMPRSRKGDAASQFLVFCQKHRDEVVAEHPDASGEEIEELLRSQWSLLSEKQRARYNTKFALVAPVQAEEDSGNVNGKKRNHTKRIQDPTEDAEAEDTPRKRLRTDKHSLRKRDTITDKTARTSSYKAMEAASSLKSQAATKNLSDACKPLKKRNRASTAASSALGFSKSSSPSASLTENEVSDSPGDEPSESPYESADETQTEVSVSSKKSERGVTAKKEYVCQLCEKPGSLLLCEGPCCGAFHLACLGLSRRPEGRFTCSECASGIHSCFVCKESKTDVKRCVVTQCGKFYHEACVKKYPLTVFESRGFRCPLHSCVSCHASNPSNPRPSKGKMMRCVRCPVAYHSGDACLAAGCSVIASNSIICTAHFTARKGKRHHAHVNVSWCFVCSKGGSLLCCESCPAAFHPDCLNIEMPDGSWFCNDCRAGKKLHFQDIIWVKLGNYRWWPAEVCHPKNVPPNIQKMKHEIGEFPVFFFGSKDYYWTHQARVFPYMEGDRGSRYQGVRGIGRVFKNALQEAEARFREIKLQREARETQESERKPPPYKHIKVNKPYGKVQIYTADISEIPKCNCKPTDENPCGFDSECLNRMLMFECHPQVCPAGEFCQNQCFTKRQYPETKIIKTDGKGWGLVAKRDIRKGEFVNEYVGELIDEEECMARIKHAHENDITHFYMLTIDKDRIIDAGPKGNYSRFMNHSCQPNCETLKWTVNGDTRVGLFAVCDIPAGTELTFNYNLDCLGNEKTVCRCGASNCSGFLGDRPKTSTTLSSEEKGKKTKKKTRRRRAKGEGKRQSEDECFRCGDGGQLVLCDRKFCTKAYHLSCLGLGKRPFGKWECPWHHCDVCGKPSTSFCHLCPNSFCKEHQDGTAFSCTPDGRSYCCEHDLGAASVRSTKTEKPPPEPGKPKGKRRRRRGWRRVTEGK

[9] = SAR analysis of small molecule activators of Apaf-1 using a LZ-Caspase-9/Caspase-3 Fluorescent Selectivity assay - Set 2.; assay type: functional; settings: read-out: EC50_Mean
[10] = target: T5, Apoptotic protease-activating factor 1 (Homo sapiens, UniProt O14727); test: SAR analysis of small molecule Activators of Apaf-1 in a Fluorescent assay - set 2.; assay type: functional; settings: read-out: EC50_Mean
T5 sequence (O14727 whole entry): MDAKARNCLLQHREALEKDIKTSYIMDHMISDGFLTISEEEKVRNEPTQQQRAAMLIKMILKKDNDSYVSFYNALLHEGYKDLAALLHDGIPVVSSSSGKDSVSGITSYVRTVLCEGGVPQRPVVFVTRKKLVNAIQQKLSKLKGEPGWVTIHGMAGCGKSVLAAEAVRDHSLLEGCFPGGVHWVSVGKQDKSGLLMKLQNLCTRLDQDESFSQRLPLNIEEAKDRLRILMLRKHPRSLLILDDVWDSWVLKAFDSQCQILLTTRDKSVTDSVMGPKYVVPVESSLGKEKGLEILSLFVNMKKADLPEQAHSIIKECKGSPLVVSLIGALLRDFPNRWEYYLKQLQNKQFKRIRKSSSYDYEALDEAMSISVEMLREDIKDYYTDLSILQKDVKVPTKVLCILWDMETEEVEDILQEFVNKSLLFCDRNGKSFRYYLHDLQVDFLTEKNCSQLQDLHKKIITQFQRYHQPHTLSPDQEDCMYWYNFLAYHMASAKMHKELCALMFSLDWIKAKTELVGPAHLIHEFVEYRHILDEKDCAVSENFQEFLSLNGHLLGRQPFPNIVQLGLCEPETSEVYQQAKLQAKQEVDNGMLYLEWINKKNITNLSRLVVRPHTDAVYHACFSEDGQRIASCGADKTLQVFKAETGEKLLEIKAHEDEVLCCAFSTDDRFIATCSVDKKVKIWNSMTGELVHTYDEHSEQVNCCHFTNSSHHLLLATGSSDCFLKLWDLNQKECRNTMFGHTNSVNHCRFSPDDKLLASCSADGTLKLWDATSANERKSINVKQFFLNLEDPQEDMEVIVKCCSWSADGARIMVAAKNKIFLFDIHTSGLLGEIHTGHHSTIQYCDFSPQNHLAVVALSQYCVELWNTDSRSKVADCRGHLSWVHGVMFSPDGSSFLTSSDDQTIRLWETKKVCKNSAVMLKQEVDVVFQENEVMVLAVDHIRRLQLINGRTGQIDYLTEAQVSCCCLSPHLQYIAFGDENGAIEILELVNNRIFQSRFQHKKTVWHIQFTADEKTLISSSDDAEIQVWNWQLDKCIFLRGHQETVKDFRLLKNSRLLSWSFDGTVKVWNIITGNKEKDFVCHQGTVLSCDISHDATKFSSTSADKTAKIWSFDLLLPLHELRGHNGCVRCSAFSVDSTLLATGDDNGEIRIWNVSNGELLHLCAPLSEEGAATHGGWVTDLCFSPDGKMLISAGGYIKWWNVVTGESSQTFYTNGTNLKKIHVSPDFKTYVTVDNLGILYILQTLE

[11] = target: T6, Neuropeptides B/W receptor type 1 (Homo sapiens, UniProt P48145); test: human NPBW1 receptor blockade, IC50 – cell-based, fluorescence, dose response, set 5, late-stage follow-up (AID 588566); assay type: functional
T6 sequence (P48145 whole entry): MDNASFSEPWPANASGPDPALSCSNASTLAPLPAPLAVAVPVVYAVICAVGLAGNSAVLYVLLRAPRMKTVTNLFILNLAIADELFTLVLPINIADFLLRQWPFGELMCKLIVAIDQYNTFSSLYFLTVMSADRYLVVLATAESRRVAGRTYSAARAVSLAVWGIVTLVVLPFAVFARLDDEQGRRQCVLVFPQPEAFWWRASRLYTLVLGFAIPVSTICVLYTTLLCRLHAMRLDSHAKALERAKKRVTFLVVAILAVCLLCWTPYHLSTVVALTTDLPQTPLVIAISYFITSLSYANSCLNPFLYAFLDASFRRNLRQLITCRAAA

[12] = target: Melanin-concentrating hormone receptor 1 (Homo sapiens, UniProt Q99705); test: Late-stage fluorescence-based counterscreen for antagonists of the G-protein coupled receptor 7 (GPR7): cell-based dose response assay to identify antagonists of the melanin-concentrating hormone receptor 1 (MCHR1) Set 5.; assay type: functional
Sequence of Melanin-concentrating hormone receptor 1 (Q99705 whole entry): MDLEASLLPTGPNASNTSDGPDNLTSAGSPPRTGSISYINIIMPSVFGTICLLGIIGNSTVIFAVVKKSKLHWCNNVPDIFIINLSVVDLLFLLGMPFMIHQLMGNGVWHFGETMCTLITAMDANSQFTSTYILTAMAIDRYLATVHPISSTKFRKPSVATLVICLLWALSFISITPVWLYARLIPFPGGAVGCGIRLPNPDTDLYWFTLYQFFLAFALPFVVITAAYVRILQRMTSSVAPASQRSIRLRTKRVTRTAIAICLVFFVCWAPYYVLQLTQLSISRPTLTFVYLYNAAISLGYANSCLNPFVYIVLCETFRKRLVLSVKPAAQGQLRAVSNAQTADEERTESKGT

T2 sequence (Q00975 whole entry): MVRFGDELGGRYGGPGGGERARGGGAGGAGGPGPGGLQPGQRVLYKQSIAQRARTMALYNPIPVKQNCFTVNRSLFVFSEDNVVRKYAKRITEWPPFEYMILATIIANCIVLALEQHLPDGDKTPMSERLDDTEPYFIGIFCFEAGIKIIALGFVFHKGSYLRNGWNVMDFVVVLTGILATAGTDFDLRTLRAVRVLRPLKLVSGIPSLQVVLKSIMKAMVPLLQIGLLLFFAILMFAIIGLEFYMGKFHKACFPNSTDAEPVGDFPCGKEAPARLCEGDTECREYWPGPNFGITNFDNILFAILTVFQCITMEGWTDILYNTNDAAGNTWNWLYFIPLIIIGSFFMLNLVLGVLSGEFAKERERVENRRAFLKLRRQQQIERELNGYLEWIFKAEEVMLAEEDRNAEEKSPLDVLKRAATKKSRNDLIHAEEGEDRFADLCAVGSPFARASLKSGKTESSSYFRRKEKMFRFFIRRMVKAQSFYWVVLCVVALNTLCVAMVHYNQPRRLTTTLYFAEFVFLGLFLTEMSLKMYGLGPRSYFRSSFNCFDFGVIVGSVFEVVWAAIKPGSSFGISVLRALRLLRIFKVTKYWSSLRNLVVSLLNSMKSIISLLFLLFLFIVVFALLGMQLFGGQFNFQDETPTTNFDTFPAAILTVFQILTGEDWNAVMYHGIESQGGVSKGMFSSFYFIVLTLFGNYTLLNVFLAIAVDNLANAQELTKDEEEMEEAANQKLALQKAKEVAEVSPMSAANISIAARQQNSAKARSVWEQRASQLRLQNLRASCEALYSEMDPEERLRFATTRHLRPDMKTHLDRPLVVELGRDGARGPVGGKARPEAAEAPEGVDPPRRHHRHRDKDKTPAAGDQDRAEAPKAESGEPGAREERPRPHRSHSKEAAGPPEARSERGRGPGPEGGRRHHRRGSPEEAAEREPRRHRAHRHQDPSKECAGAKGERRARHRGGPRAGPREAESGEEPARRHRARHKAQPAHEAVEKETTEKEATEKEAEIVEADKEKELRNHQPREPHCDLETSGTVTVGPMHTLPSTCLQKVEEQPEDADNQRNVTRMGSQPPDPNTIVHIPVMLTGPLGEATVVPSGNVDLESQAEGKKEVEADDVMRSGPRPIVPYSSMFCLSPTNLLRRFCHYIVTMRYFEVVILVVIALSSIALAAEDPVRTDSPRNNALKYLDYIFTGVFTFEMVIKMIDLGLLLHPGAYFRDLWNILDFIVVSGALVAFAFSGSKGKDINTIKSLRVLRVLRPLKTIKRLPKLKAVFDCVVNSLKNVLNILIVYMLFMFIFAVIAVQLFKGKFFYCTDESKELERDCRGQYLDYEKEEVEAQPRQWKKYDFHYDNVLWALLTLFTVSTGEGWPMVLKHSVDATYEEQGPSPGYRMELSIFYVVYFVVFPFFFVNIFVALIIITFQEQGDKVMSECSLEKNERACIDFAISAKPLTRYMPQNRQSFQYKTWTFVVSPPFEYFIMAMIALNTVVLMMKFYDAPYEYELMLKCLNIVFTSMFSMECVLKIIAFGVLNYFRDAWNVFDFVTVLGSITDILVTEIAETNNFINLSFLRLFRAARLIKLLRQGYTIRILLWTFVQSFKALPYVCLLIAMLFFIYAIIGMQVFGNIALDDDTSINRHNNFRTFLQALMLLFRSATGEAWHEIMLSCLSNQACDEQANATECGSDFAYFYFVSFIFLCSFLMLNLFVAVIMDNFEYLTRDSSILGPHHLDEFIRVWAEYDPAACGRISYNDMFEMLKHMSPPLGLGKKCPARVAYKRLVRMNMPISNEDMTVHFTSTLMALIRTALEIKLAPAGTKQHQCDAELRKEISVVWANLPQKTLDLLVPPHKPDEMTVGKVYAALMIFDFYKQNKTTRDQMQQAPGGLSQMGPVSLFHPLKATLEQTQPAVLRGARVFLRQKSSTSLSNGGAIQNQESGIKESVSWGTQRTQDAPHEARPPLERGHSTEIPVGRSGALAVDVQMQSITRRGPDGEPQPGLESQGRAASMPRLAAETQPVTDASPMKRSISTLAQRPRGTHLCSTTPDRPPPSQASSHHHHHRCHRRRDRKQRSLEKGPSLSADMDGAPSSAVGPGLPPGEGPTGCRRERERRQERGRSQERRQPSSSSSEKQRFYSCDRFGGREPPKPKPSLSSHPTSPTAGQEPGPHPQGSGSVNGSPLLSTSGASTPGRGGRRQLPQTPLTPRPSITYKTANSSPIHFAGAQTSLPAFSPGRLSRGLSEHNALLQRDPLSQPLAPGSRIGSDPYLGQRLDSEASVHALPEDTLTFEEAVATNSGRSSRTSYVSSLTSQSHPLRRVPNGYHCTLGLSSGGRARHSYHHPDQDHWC
T2 sequence (Q02410 whole entry): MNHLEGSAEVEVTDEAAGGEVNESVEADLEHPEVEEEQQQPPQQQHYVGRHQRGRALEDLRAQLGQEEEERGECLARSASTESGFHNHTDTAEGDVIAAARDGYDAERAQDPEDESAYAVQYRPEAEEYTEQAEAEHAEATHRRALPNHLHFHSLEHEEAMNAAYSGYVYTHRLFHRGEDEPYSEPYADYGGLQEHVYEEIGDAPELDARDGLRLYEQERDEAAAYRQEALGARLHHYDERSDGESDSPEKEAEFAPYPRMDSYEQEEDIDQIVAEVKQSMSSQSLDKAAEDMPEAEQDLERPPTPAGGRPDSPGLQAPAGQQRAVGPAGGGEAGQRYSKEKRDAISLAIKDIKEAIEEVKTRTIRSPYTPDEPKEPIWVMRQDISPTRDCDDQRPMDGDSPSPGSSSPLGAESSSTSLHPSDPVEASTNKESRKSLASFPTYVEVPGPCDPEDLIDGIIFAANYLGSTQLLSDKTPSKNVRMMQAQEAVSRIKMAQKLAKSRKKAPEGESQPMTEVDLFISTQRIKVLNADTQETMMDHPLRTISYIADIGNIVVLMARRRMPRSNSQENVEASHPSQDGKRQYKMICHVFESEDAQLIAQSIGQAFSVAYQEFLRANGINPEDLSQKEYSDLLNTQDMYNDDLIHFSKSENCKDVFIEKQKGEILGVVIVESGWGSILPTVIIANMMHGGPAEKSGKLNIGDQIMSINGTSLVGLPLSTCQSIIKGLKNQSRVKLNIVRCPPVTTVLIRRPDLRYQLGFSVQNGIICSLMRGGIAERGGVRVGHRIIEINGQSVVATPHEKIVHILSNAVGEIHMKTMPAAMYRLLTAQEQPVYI
Sequence of Melanocortin receptor 4 (P32245 whole entry): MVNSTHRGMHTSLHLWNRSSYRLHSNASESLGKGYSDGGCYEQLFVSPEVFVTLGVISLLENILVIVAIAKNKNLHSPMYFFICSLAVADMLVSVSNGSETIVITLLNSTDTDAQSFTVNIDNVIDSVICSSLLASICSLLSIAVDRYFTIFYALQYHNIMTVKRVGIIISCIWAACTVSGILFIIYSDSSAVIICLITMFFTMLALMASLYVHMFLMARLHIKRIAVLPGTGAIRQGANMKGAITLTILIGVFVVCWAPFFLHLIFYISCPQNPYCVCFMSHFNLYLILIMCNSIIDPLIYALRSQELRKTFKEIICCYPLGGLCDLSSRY
Sequence of Neurotensin receptor type 1 (P30989 whole entry, the tested form may be a part): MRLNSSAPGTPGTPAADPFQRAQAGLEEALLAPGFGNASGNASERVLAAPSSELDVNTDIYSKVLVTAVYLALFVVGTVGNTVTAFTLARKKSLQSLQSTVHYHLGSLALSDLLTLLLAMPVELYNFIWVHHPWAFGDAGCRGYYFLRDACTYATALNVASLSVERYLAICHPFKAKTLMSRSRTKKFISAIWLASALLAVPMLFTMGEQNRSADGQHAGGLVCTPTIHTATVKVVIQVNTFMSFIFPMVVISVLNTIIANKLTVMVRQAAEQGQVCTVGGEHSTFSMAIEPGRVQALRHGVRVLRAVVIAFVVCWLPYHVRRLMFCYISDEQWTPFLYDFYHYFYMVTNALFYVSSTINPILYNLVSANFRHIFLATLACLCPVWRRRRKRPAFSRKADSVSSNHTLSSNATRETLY

## Cc1nnc(NCc2cccc(Cl)c2)c2ccccc12
[1]
  IC50: 9.8 µM (active)
[2]
  IC50: 4.74 µM (active)

## O=C1NC(=O)C(=Cc2ccc(SC3CCCCC3)o2)C(=O)N1
[3]
  IC50: 14.5 µM (active)
[4]
  IC50: > 50 µM (inactive)
[5]
  EC50: 12.7 µM (active)
[6]
  IC50: 5.67 µM (active)
Melanocortin receptor 4
  IC50: > 21.5 µM (inactive)
[7]
  IC50: > 64.6 µM (inactive)
[8]
  AC50: > 20 µM (inactive)

## CC(CNC(C)c1ccccc1)C(=O)O (stereo not drawn)
[9]
  EC50: > 100 µM (inactive)
[10]
  EC50: 80.6 µM (active)

## COc1c(F)cc(Oc2c(Cl)cnn(Cc3cccc4ccccc34)c2=O)cc1Cl
[11]
  IC50: 5.05 µM (active)
[12]
  IC50: 11.2 µM (inactive)
